# Reference: US10800791B2, “Triazole ACC inhibitors and uses thereof” (Gilead Apollo, LLC, priority 2015, dated 2020)
# Like-named read-outs stand apart in the source and are kept apart here.
# Tests used:
# [1] = target: fungal (fACC2) (UniProt Q00955); conditions: read-out: fACC2 (in vitro ACC2 Inhibition Assay, IC50), ADP-Glo, 5 nM ACC2, 20 μM ATP, 20 μM acetyl-CoA
# [2] = test system: C. krusei; experiment: Antifungal Activity Assay (broth microtiter MIC), C. krusei; assay type: cell-based, Candida krusei; conditions: for MIC: Pichia kudriavzevii, ATCC6258, 48 h
# Outline: (§1)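 Colonies from 24 h Sabouraud dextrose agar plates (35° C) are suspended in RPMI 1640+MOPS and diluted to give 2.5×10^3 CFU/mL in the wells. Plates are set up per CLSI M27-A3. Visual MIC is recorded at 48 h.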
# [3] = test system: C. parapsilosis; experiment: Antifungal Activity Assay (broth microtiter MIC), C. parapsilosis; assay type: cell-based, Candida parapsilosis; conditions: for MIC: Lodderomyces parapsilosis, ATCC22019, 48 h
# Outline: as §1
# [4] = test system: C. albicans; experiment: Antifungal Activity Assay (broth microtiter MIC), C. albicans; assay type: cell-based, Candida albicans; conditions: for MIC: Candida albicans, ATCC90028, 48 h
# Outline: as §1
# [5] = target: human (hACC2) (Homo sapiens, UniProt O00763); experiment: In vitro ACC inhibition assay (ADP-Glo), hACC2; assay type: biochemical; conditions: 5 nM ACC2, 20 μM ATP, 20 μM acetyl-CoA
# Experimental: The detailed procedure is as follows. […] 10 μL ADP glo reagent was added. […] 20 μL kinase detection reagent was added.
# [6] = Table 3a, 3 replicates, MIC recorded at 48 h
# [7] = Table 3b (additional results), 3 replicates, MIC recorded at 48 h
# [8] = Table 3a, ATCC 6258, 3 replicates, MIC recorded at 48 h, read-out: MIC, C. krusei ATCC 6258
# [9] = Table 3b (additional results), ATCC 6258, 3 replicates, MIC recorded at 48 h, read-out: MIC, C. krusei ATCC 6258
# [10] = Table 3a, ATCC 22019, 3 replicates, MIC recorded at 48 h, read-out: MIC, C. parapsilosis ATCC 22019
# [11] = Table 3b (additional results), ATCC 22019, 3 replicates, MIC recorded at 48 h, read-out: MIC, C. parapsilosis ATCC 22019
# [12] = Table 3a, ATCC 90028, 3 replicates, MIC recorded at 48 h, read-out: MIC, C. albicans ATCC 90028
# [13] = Table 3b (additional results), ATCC 90028, 3 replicates, MIC recorded at 48 h, read-out: MIC, C. albicans ATCC 90028
# Sequence of human (hACC2) (O00763 whole entry): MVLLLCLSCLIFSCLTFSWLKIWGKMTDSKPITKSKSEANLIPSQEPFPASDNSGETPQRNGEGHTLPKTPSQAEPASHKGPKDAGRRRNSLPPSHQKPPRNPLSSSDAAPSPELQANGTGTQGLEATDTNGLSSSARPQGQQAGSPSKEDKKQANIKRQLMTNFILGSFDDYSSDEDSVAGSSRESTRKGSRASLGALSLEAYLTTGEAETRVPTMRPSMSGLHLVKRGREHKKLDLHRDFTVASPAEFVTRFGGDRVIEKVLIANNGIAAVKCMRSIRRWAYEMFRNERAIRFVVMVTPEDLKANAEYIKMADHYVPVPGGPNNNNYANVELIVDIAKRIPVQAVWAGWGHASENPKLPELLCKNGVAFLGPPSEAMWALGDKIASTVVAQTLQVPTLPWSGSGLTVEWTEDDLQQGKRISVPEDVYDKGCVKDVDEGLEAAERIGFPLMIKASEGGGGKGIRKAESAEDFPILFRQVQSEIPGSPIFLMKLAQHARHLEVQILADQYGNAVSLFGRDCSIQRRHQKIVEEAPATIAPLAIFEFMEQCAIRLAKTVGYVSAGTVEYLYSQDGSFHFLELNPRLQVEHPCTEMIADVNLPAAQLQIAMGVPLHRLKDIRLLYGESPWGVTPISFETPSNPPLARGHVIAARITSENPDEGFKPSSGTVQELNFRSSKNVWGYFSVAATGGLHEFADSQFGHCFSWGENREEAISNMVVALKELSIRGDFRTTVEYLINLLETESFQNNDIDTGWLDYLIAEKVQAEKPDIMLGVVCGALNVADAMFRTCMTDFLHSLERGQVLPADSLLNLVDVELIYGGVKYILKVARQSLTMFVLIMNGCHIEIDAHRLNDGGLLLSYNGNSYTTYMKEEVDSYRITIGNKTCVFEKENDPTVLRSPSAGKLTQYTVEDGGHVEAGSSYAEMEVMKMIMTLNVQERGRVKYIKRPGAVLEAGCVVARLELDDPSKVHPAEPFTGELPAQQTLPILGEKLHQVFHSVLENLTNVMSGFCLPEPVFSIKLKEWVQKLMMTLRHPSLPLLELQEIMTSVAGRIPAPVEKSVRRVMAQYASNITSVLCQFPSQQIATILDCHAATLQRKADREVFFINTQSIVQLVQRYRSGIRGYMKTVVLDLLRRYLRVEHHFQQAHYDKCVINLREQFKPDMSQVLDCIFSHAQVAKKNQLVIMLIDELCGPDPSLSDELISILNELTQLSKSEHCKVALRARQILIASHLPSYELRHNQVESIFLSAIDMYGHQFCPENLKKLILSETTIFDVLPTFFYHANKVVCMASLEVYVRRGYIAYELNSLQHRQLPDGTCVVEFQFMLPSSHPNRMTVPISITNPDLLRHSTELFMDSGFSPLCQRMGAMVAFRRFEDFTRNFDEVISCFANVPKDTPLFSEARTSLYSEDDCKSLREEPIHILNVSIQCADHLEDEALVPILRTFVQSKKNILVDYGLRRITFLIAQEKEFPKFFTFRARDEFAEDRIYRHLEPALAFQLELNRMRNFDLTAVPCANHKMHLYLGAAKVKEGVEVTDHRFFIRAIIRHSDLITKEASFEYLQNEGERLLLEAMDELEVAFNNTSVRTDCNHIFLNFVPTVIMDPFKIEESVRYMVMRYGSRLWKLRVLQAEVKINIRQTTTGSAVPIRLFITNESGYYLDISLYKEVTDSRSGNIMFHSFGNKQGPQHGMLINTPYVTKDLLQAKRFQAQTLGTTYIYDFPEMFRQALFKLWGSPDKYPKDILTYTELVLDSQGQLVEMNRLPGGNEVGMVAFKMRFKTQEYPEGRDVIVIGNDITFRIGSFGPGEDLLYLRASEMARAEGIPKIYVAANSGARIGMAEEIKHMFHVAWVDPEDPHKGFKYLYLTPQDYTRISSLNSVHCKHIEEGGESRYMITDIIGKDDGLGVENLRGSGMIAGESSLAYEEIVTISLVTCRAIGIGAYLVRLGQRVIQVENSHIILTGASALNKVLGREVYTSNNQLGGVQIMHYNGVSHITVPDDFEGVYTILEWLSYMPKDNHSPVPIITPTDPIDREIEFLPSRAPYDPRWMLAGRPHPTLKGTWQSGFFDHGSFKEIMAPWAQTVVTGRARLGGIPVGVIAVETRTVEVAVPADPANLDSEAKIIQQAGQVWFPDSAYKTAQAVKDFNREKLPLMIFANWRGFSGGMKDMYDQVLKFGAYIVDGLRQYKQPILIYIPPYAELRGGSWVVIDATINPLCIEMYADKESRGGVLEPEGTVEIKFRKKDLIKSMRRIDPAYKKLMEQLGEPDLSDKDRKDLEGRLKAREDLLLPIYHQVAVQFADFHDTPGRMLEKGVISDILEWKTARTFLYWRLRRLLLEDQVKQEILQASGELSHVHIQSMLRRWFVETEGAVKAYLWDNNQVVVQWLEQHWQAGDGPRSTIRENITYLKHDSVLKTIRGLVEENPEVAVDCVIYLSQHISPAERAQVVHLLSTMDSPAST
# Sequence of fungal (fACC2) (Q00955 whole entry): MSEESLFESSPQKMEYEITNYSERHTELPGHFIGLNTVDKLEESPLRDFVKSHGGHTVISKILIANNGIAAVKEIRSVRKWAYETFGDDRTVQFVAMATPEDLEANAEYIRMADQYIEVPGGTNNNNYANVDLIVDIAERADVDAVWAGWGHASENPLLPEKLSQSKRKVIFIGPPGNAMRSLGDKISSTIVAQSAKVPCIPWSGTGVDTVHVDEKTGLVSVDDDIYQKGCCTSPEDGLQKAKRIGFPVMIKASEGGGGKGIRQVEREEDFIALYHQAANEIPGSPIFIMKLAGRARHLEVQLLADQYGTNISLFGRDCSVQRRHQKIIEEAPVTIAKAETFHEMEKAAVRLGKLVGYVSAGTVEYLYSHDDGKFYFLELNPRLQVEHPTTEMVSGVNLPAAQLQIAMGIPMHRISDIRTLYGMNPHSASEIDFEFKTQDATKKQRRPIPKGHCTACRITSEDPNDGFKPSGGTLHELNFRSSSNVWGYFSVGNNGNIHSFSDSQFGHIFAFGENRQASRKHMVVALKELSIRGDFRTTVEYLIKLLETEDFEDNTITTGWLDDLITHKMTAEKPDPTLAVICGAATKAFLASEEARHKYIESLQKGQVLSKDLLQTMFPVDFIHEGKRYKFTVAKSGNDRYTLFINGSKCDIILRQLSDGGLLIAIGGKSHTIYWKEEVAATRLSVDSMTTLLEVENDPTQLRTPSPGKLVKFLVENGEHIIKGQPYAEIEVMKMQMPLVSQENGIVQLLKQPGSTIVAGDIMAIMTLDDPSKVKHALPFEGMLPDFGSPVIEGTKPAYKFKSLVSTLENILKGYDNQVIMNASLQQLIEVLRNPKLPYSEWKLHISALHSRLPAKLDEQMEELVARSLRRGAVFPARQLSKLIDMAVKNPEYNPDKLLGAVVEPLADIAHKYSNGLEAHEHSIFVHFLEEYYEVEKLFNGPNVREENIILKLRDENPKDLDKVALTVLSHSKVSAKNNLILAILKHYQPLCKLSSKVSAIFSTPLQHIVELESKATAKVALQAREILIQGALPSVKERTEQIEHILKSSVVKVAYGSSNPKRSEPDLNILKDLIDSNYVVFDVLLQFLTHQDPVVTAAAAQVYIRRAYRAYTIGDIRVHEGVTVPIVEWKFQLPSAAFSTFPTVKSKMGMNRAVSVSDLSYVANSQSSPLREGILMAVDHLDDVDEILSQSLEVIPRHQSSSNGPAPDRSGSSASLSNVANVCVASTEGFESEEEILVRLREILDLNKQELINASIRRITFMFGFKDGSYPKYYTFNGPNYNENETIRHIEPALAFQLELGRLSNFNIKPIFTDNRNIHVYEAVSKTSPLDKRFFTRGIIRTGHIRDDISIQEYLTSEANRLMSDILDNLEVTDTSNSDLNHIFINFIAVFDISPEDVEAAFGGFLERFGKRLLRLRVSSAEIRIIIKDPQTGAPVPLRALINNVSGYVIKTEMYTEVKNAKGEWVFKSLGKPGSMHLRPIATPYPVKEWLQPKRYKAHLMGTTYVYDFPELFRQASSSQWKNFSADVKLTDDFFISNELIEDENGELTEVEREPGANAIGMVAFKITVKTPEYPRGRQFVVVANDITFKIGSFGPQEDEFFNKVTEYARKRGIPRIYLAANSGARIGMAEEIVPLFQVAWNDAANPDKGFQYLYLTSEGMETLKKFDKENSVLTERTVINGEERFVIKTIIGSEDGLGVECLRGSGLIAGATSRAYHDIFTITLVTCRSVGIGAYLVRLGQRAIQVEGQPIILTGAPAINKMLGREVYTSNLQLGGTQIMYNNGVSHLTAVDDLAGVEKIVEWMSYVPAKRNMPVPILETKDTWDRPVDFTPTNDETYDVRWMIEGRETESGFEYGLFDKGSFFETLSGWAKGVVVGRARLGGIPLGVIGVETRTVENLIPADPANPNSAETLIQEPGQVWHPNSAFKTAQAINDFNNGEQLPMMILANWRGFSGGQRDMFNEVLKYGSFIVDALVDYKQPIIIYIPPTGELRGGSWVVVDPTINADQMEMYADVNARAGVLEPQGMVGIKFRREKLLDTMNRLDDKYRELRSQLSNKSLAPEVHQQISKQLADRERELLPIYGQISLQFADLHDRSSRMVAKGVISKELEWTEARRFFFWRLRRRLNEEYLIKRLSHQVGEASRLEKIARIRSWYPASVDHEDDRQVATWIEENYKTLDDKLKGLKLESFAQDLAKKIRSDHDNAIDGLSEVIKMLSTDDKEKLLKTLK
Structure (SMILES),IC50 ([1]; Table 2a) [nM],"IC50 ([1]; Table 2b, additional results) [nM]",IC50 ([5]; Table 2a) [nM],"IC50 ([5]; Table 2b, additional results) [nM]","MIC [2, 8] [mg/L]","MIC [2, 9] [mg/L]","MIC [3, 10] [mg/L]","MIC [3, 11] [mg/L]","MIC [4, 12] [mg/L]","MIC [4, 13] [mg/L]",also measured
COCCO[C@@H](Cn1c(=O)n(C(C)(C)C(=O)NC2CCC2)c(=O)c2c(C)c(-n3nccn3)sc21)c1cc(F)ccc1OC [Compound I-134],1 to 5,1 to 5,5 to 10,5 to 10,,,,,,,"MIC, C. krusei ATCC 6258 [2, 6]: B (MIC of 1.1-2.0 μg/mL); MIC, C. krusei ATCC 6258 [2, 7]: B (MIC of 1.01-2.0 μg/mL); MIC, C. parapsilosis ATCC 22019 [3, 6]: B (MIC of 1.1-2.0 μg/mL); MIC, C. parapsilosis ATCC 22019 [3, 7]: A (MIC of 0.25-1.0 μg/mL); MIC, C. albicans ATCC 90028 [4, 6]: B (MIC of 1.1-2.0 μg/mL); MIC, C. albicans ATCC 90028 [4, 7]: D (MIC of >4.01 μg/mL)"
"COc1ccc(F)cc1[C@H](Cn1c(=O)n(C(C)(C)C(=O)NC(C)C)c(=O)c2c(C)c(-n3nccn3)sc21)OCCC(=O)O [Compound I-135, 3-[(1R)-1-(5-fluoro-2-methoxyphenyl)-2-(5-methyl-3-[1-methyl-1-[(propan-2-yl)carbamoyl]ethyl]-2,4-dioxo-6-(2H-1,2,3-triazol-2-yl)-1H,2H,3H,4H-thieno[2,3-d]pyrimidin-1-yl)ethoxy]propanoic acid]",1 to 5,0.3 to 1,10 to 40,10 to 40,2.1 to 4,0.25 to 1,2.1 to 4,0.25 to 1,0.25 to 1,0.25 to 1,
"COc1ccccc1[C@H](Cn1c(=O)n(C(C)(C)C(N)=O)c(=O)c2c(C)c(-n3nccn3)sc21)OCCC#N [Compound I-137, 2-[1-[(2R)-2-(2-cyanoethoxy)-2-(2-methoxyphenyl)ethyl]-5-methyl-2,4-dioxo-6-(2H-1,2,3-triazol-2-yl)-1H,2H,3H,4H-thieno[2,3-d]pyrimidin-3-yl]-2-methylpropanamide]",1 to 5,1 to 5,1 to 5,1 to 5,2.1 to 4,2.01 to 4,2.1 to 4,2.01 to 4,2.1 to 4,2.01 to 4,
COc1ccc(F)cc1[C@H](Cn1c(=O)n(C(C)(C)C(=O)O)c(=O)c2c(C)c(-n3nccn3)sc21)OCCN1CC(C#N)C1 [Compound I-145],1 to 5,1 to 5,,10 to 40,2.1 to 4,> 4.01,2.1 to 4,> 4.01,2.1 to 4,> 4.01,
COc1ccc(F)cc1[C@H](Cn1c(=O)n(C(C)(C)C(=O)NC(C)C)c(=O)c2c(C)c(-n3nccn3)sc21)OCCN1CC(C#N)C1 [Compound I-146],1 to 5,1 to 5,,> 40,,,,,,,"MIC ([2]; read-out: MIC, C. krusei ATCC 6258, Table 3a, 3 replicates, MIC recorded at 48 h): 2.1 to 4 mg/L; MIC ([2]; read-out: MIC, C. krusei ATCC 6258, Table 3b (additional results), 3 replicates, MIC recorded at 48 h): 0.25 to 1 mg/L; MIC ([3]; read-out: MIC, C. parapsilosis ATCC 22019, Table 3a, 3 replicates, MIC recorded at 48 h): 2.1 to 4 mg/L; MIC ([3]; read-out: MIC, C. parapsilosis ATCC 22019, Table 3b (additional results), 3 replicates, MIC recorded at 48 h): 0.25 to 1 mg/L; MIC ([4]; read-out: MIC, C. albicans ATCC 90028, Table 3a, 3 replicates, MIC recorded at 48 h): 2.1 to 4 mg/L; MIC ([4]; read-out: MIC, C. albicans ATCC 90028, Table 3b (additional results), 3 replicates, MIC recorded at 48 h): 1.01 to 2 mg/L"
COc1ccc(F)cc1[C@H](Cn1c(=O)n(C(C)(C)C(=O)O)c(=O)c2c(C)c(-n3nccn3)sc21)OC[C@@H](C)C#N [Compound I-147],1 to 5,1 to 5,5 to 10,5 to 10,2.1 to 4,> 4.01,2.1 to 4,> 4.01,2.1 to 4,2.01 to 4,
COc1ccc(F)cc1[C@H](Cn1c(=O)n(C(C)(C)C(=O)O)c(=O)c2c(C)c(-n3nccn3)sc21)OC[C@H](C)C#N [Compound I-148],1 to 5,1 to 5,1 to 5,1 to 5,2.1 to 4,> 4.01,2.1 to 4,> 4.01,2.1 to 4,2.01 to 4,
"COc1ccc(F)cc1[C@H](Cn1c(=O)n(C(C)(C)C(=O)O)c(=O)c2c(C)c(-n3nccn3)sc21)OCC(C)(C)C#N [Compound I-149, 2-[1-[(2R)-2-(2-cyano-2,2-dimethylethoxy)-2-(5-fluoro-2-methoxyphenyl)ethyl]-5-methyl-2,4-dioxo-6-(2H-1,2,3-triazol-2-yl)-1H,2H,3H,4H-thieno[2,3-d]pyrimidin-3-yl]-2-methylpropanoic acid]",1 to 5,1 to 5,1 to 5,1 to 5,2.1 to 4,> 4.01,2.1 to 4,> 4.01,2.1 to 4,1.01 to 2,
